Among the data in patent publication US20210032674A1, “METHOD FOR DETERMINING MICROORGANISM CONCENTRATION” (priority 2018, published 2021) are MIC and MIC values values, retold here.

The subject of the assay is clinical isolate of Klebsiella pneumoniae. Description: Antibiotic susceptibility test (AST), MIC calling by automated microscopy imaging of microbial biomass in a 336-well AST-disc. It counts as cell-based. The following applies: K. pneumoniae recovered from spiked positive blood culture flask, adjusted to 5x10^5 CFU/ml in CAMBH, 35° C., up to 5.5 hours total AST time; for MIC: Klebsiella pneumoniae, 5.5 h. The procedure: Clinical isolates grown on agar plate were individually suspended in PBS and adjusted to 0.5 McFarland. A 1:100 dilution of this was added together with 9 ml of blood from a healthy donor to a blood culture flask (BD Bactec Plus Aerob) and incubated in a blood culture cabinet overnight. In the morning, after the BCF had turned positive a 500 μl aliquot of the positive BCF were used for the subsequent analysis.
The value of the concentration determination was compared to a pre-determined standard curve and the concentration of microorganisms in the recovered suspension was automatically adjusted to the desired concentration (5×10^5 CFU/ml). For this experiment an aliquot of the concentration adjusted bacteria were plated on an agar plate to determine viable cell count to provide a control measure for the process.
The concentration adjusted sample in CAMBH was added using an automated pipette via central access ports to a 336-well AST-disc pre-filled with dried antibiotics in various concentrations.
Each well contain 20 μl of sample and is incubated at 35° C. An initial reading was taken after 30 minutes (reading 0). Subsequent readings (readings 1-6) were taken every hour up to 5.5 hours total AST time by imaging by automated microscopy.
MIC antibiotic concentrations (measured in mg/I) were determined for a range of antibiotics. Each antibiotic were present in triplicates in the AST-consumable in this experiment.

Usually MIC stands for the lowest concentration found to suppress growth.

≈ marks a conversion by molar mass, not a printed value.

Regarding `NCC[C@H](O)C(=O)N[C@@H]1C[C@H](N)[C@@H](O[C@H]2O[C@H](CN)[C@@H](O)[C@H](O)[C@H]2O)[C@H](O)[C@H]1O[C@H]1O[C@H](CO)[C@@H](O)[C@H](N)[C@H]1O` [Amikacin], the MIC reads like this: (replicate #1) 1 µg/mL (≈ 1.71 µM); (replicate #2) 2 µg/mL (≈ 3.42 µM); (replicate #3) 1 µg/mL (≈ 1.71 µM).
`CO/N=C(\C(=O)N[C@@H]1C(=O)N2C(C(=O)O)=C(COC(C)=O)CS[C@H]12)c1csc(N)n1` [Cefotaxime]: the MIC is above 8 µg/mL (replicate #1), above 8 µg/mL (replicate #2) and above 8 µg/mL (replicate #3).
In the case of `CO[C@@]1(NC(=O)Cc2cccs2)C(=O)N2C(C(=O)O)=C(COC(N)=O)CS[C@@H]21` [Cefoxitine], the MIC turned out to be 2 µg/mL (≈ 4.68 µM) (replicate #1), 4 µg/mL (≈ 9.36 µM) (replicate #2) and 2 µg/mL (≈ 4.68 µM) (replicate #3).
For the compound `CC(C)(O/N=C(\C(=O)N[C@@H]1C(=O)N2C(C(=O)[O-])=C(C[n+]3ccccc3)CS[C@H]12)c1csc(N)n1)C(=O)O` [Ceftazidime], the MIC (replicate #1) is at most 0.125 µg/mL, the MIC (replicate #2) is at most 0.125 µg/mL and the MIC (replicate #3) was at most 0.125 µg/mL.
The compound `CO/N=C(\C(=O)N[C@@H]1C(=O)N2C(C(=O)O)=C(CSc3nc(=O)c(=O)[nH]n3C)CS[C@H]12)c1csc(N)n1` [Ceftriaxone] yielded an MIC (replicate #1) above 8 µg/mL, an MIC (replicate #2) above 8 µg/mL and an MIC (replicate #3) above 8 µg/mL.
On to `C[C@@H](O)[C@H]1C(=O)N2C(C(=O)O)=C(S[C@@H]3CN[C@H](C(=O)Nc4cccc(C(=O)O)c4)C3)[C@H](C)[C@H]12` [Ertapenem], for which the MIC (replicate #1) was at most 0.0156 µg/mL, 0.0312 µg/mL (≈ 0.0657 µM) was the least that counted as inhibitory (replicate #2) (MIC) and the MIC (replicate #3) was at most 0.0156 µg/mL.
Take `C[C@@H](O)[C@H]1C(=O)N2C(C(=O)O)=C(SCCN=CN)C[C@H]12` [Imipinem]: the MIC values entry is on record as “<=0.5 mg/I” (replicate #1), “<=0.5 mg/I” (replicate #2) and “<=0.5 mg/I” (replicate #3).
For `C[C@H]1COc2c(N3CCN(C)CC3)c(F)cc3c(=O)c(C(=O)O)cn1c23` [Levofloxacin], the MIC by setting is: (replicate #1) 0.5 µg/mL (≈ 1.38 µM); (replicate #2) 0.5 µg/mL (≈ 1.38 µM); (replicate #3) 0.5 µg/mL (≈ 1.38 µM).
In the case of `C[C@@H](O)[C@H]1C(=O)N2C(C(=O)O)=C(S[C@@H]3CN[C@H](C(=O)N(C)C)C3)[C@H](C)[C@H]12` [Meropenem], the MIC runs as follows: (replicate #1) at most 0.0625 µg/mL; (replicate #2) at most 0.0625 µg/mL; (replicate #3) at most 0.0625 µg/mL.
The compound `CN(C)c1cc(NC(=O)CNC(C)(C)C)c(O)c2c1C[C@H]1C[C@H]3[C@H](N(C)C)C(O)=C(C(N)=O)C(=O)[C@@]3(O)C(O)=C1C2=O` [Tigecyclin] registered an MIC values (replicate #1) of 0.5 mg/I, an MIC values (replicate #2) of 0.5 mg/I and an MIC values (replicate #3) of 0.5 mg/I.
For the compound `NC[C@H]1O[C@H](O[C@H]2[C@H](O)[C@@H](O[C@H]3O[C@H](CO)[C@@H](O)[C@H](N)[C@H]3O)[C@H](N)C[C@@H]2N)[C@H](N)C[C@@H]1O` [Tobramycin], the MIC stood at 2 µg/mL (≈ 4.28 µM) (replicate #1), 2 µg/mL (≈ 4.28 µM) (replicate #2) and 2 µg/mL (≈ 4.28 µM) (replicate #3).
Regarding Amoxicillin/clavulanic acid, the MIC values reads like this: (replicate #1) 8 mg/I; (replicate #2) 16 mg/I; (replicate #3) 16 mg/I.
With Ceftolozane-tazobactam, the MIC values runs as follows: (replicate #1) 0.25 mg/I; (replicate #2) 0.25 mg/I; (replicate #3) 0.25 mg/I.
In the case of Colistin, the MIC values is on record as 0.5 mg/I (replicate #1), 1 mg/I (replicate #2) and 1 mg/I (replicate #3).
As for Gentamicin, the MIC values reads like this: (replicate #1) 0.5 mg/I; (replicate #2) 0.5 mg/I; (replicate #3) 0.5 mg/I.
Turning to Piperacillin/Tazobactam, the MIC values runs as follows: (replicate #1) 4 mg/I; (replicate #2) 4 mg/I; (replicate #3) 4 mg/I.
For the compound Trimethoprim/Sulfamethoxasole, the MIC values is on record as above 16 mg/I (replicate #1), above 16 mg/I (replicate #2) and above 16 mg/I (replicate #3).
ceftazidime-avibactam: the MIC values (replicate #1) is 16 mg/I, the MIC values (replicate #2) is given as 32 mg/I and the MIC values (replicate #3) is reported as 32 mg/I.
